Reference: patent publication US9149475B2, “Protein kinase C inhibitors and uses thereof” (Rigel Pharmaceuticals, Inc., priority 2009, dated 2015)
pIC50: −log10 of the molar value.

System: Human primary T cells
Assay: IL-2 ELISA, human primary T cell, anti-CD3+CD28+ (whole cell assay)
Type: cell-based
Conditions: human primary T cells stimulated with anti-CD3 + anti-CD28, 24 hours
How it was run: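 IL-2 secreted over 24 h at 37° C was quantified by ELISA after plate-bound αCD3 (1 μg/ml) and αCD28 (5 μg/ml) stimulation, or PMA (0.5 ng/ml) with ionomycin (0.1 μM) as counter-screen. Cells were IL-2-starved primary human T cells, expanded from volunteer PBMC and exposed to compound for 1 hr beforehand.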

| Compound | pIC50 (Homo sapiens, T-cell, 24 h) | pIC50 |
| --- | --- | --- |
| CN1C(C)(C)CC(Nc2nc(Nc3cc(-c4nnnn4C)cc(C(F)(F)F)c3)ncc2F)CC1(C)C [III-141, 5-fluoro-N2-(3-(1-methyl-1H-tetrazol-5-yl)-5-(trifluoromethyl)phenyl)-N4-(1,2,2,6,6-pentamethylpiperidin-4-yl)pyrimidine-2,4-diamine] | > 6.60 | – |
| CC(C)Oc1c(F)cc(Nc2ncc(F)c(NC3CC(C)(C)NC(C)(C)C3)n2)cc1-c1nnnn1C [III-142, 5-fluoro-N2-(3-fluoro-4-isopropoxy-5-(1-methyl-1H-tetrazol-5-yl)phenyl)-N4-(2,2,6,6-tetramethylpiperidin-4-yl)pyrimidine-2,4-diamine] | 6.30 to 6.60 | – |
| Cn1nnnc1-c1cc(C#N)cc(Nc2ncc(F)c(NC3CC(C)(C)NC(C)(C)C3)n2)c1 [III-143, 3-(5-fluoro-4-(2,2,6,6-tetramethylpiperidin-4-ylamino)pyrimidin-2-ylamino)-5-(1-methyl-1H-tetrazol-5-yl)benzonitrile] | 6.00 to 6.30 | – |
| CN1C(C)(C)CC(Nc2nc(Nc3cc(C#N)cc(-c4nnnn4C)c3)ncc2F)CC1(C)C [III-144, 3-(5-fluoro-4-(1,2,2,6,6-pentamethylpiperidin-4-ylamino)pyrimidin-2-ylamino)-5-(1-methyl-1H-tetrazol-5-yl)benzonitrile] | > 6.60 | – |
| Cn1nnnc1-c1cc(Nc2ncc(F)c(NC3CC(C)(C)NC(C)(C)C3)n2)cc(OC2COC2)c1 [III-145, 5-fluoro-N2-(3-(1-methyl-1H-tetrazol-5-yl)-5-(oxetan-3-yloxy)phenyl)-N4-(2,2,6,6-tetramethylpiperidin-4-yl)pyrimidine-2,4-diamine] | < 6.00 | – |
| CN1C(C)(C)CC(Nc2nc(Nc3cc(OC4COC4)cc(-c4nnnn4C)c3)ncc2F)CC1(C)C [III-146, 5-fluoro-N2-(3-(1-methyl-1H-tetrazol-5-yl)-5-(oxetan-3-yloxy)phenyl)-N4-(1,2,2,6,6-pentamethylpiperidin-4-yl)pyrimidine-2,4-diamine] | 6.30 to 6.60 | – |
| Cn1nnnc1-c1cc(Nc2ncc(F)c(NC3CC(C)(C)NC(C)(C)C3)n2)cc(C2CC2)c1 [III-147, N2-(3-cyclopropyl-5-(1-methyl-1H-tetrazol-5-yl)phenyl)-5-fluoro-N4-(2,2,6,6-tetramethylpiperidin-4-yl)pyrimidine-2,4-diamine] | > 6.60 | – |
| N2-(3,5-Dimethoxyphenyl)-5-fluoro-N4-(1-N-oxide-2,2,6,6-pentamethylpiperidin-4-yl)-2,4-pyrimidinediamine [Compound I-111] | – | < 6.00 |
